Values quoted from earlier work as cited in patent publication US20250169750A1 (HEMOLENS DIAGNOSTICS SP. Z O.O., priority 2022, published 2025).
One block for each compound: values may come before it.

How the values were obtained:
[1] = tested on: coronary vascular responsiveness to adenosine; details: for coronary conductance change / systemic pressure change: dog, in vivo
[2] = biological target: A2A adenosine receptors (Homo sapiens, UniProt P29274)
A2A adenosine receptors, sequence (P29274 whole entry): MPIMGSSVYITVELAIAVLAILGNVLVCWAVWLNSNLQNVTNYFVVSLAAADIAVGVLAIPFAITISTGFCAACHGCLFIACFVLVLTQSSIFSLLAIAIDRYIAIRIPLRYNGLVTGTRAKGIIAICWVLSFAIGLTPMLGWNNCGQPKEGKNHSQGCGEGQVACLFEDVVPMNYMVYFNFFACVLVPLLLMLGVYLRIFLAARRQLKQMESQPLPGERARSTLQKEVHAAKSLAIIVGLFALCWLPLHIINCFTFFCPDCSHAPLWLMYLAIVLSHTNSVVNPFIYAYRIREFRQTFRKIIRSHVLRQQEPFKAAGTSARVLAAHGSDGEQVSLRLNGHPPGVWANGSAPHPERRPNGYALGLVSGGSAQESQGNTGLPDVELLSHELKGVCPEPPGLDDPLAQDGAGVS

SMILES: CNC(=O)c1cnn(-c2nc(N)c3ncn([C@@H]4O[C@H](CO)[C@@H](O)[C@H]4O)c3n2)c1 [Regadenoson]
stress myocardial blood flow (MBF), comparison (400 μg bolus vs Dipyridamole 0.56 mg/kg or Adenosine 140 μg/kg/min, 15 healthy volunteers): higher values
heart rate (HR), comparison (400 μg bolus vs Dipyridamole or Adenosine): higher values
stress MBF adjusted to HR, comparison (Regadenoson vs Adenosine): no differences between Adenosine and Regadenoson
stress MPR adjusted to HR, comparison (Regadenoson vs Adenosine): no differences between Regadenoson and Adenosine
unadjusted myocardial perfusion reserve (MPR), comparison (vs Adenosine and Dipyridamole): higher

SMILES: COC(=O)[C@@H](N)CCCNC(=N)N[N+](=O)[O-] [L-NAME, N^ω-Nitro-L-arginine methyl ester]
change of Adenosine plasma concentration needed to reach 50% of maximal conductivity increase (ED50) ([1]; after 1 mg/kg or 10 mg/kg of L-NAME, vs basal condition): increased three times
coronary conductance change [1]: reduction in coronary conductance
systemic pressure change [1]: increase in systemic pressure

affinity to an Adenosine receptor (comparison) ([2]; APA vs BND): equal
duration of the action ([2]; intravenous bolus): less than 5 minutes
SMILES: Nc1nc(N/N=C/C2CCCCC2)nc2c1ncn2[C@@H]1O[C@H](CO)[C@@H](O)[C@H]1O [Binodenoson]

SMILES: COc1ccc(Cl)cc1C(=O)NCCc1ccc(S(=O)(=O)NC(=O)NC2CCCCC2)cc1 [Glibenclamide]
change of Adenosine ED50 ([1]; after Glibenclamide administration): increased dose-dependently
coronary conductance change [1]: reduction in coronary conductance
systemic pressure change [1]: increase in systemic pressure
